# Test results as given in ChEMBL document CHEMBL1201862, “PubChem BioAssay data set” (2004).
# “And” between values parts separate entries of the source, which are not always exact repeats. Equal entries are not always repeated.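 Values below derive from 48-hour exposures of cells grown in 96-well plates, with endpoints linearly interpolated between the two concentrations bracketing the appropriate inhibition level. Here, GI50 denotes the concentration required for 50% inhibition of growth.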 The source made the active and inactive calls. No stated cut-off is given here; in the data, active = GI50 up to about 1.1 µM and inactive = higher.
# Tests used:
# Assay in all cases: growth of human tumour cells (NCI), 48 h
# ACHN = test system: ACHN
# EKVX = test system: EKVX
# HOP-62 = test system: HOP-62
# KM12 = test system: KM12
# M14 = test system: M14
# MDA-MB-231 = test system: MDA-MB-231
# NCI-H226 = test system: NCI-H226
# NCI-H23 = test system: NCI-H23
# OVCAR-8 = test system: OVCAR-8
# PC-3 = test system: PC-3
# RPMI-8226 = test system: RPMI-8226
# SF-268 = test system: SF-268
# SK-MEL-28 = test system: SK-MEL-28
# SK-MEL-5 = test system: SK-MEL-5
# SK-OV-3 = test system: SK-OV-3
# T47D = test system: T47D
# CCRF-CEM = test system: CCRF-CEM
# HCC 2998 = test system: HCC 2998
# Hs-578T = test system: Hs-578T
# Malme-3M = test system: Malme-3M
Structure (SMILES),GI50 (ACHN),GI50 (EKVX),GI50 (HOP-62),GI50 (KM12),GI50 (M14),GI50 (MDA-MB-231),GI50 (NCI-H226),GI50 (NCI-H23),GI50 (OVCAR-8),GI50 (PC-3),GI50 (RPMI-8226),GI50 (SF-268),GI50 (SK-MEL-28),GI50 (SK-MEL-5),GI50 (SK-OV-3),GI50 (T47D),GI50 (CCRF-CEM),GI50 (HCC 2998),GI50 (Hs-578T),GI50 (Malme-3M)
NN/C(=N\S(=O)(=O)c1ccc(-c2ccccn2)s1)Nc1ccc(Cl)cc1,> 100 µM (inactive),53.6 µM (inactive),38.9 µM (inactive),> 100 µM (inactive),> 100 µM (inactive),> 100 µM (inactive),75.2 µM (inactive),> 100 µM (inactive),83.6 µM (inactive),> 100 µM (inactive),> 100 µM (inactive),22.1 µM (inactive),> 100 µM (inactive),> 100 µM (inactive),88.9 µM (inactive),38.1 µM (inactive),,,,
COc1cccc(-c2c(-c3ccccc3)[nH]c(C)c2C(=O)ONC(=O)c2ccccc2)c1,2.99 µM (inactive),6.78 µM (inactive),2.72 µM (inactive),13.7 µM (inactive),5.7 µM (inactive),9.55 µM (inactive),10.4 µM (inactive),11.6 µM (inactive),5.18 µM (inactive),11.6 µM (inactive),6.28 µM (inactive),7.57 µM (inactive),14.7 µM (inactive),9.93 µM (inactive),14.2 µM (inactive),,3.21 µM (inactive),14.4 µM (inactive),4.95 µM (inactive),13.4 µM (inactive)
O=[N+]([O-])c1ccc2sc(/C=N/c3ccc(O)cc3)cc2c1,32.2 µM (inactive),48.1 µM (inactive),34.7 µM (inactive),33.7 µM (inactive),31.3 µM (inactive),17.8 µM (inactive),,27.9 µM (inactive),32.2 µM (inactive),29.6 µM (inactive),22.3 µM (inactive),29.5 µM (inactive),36.1 µM (inactive),21.8 µM (inactive),84.7 µM (inactive),,15.3 µM (inactive),21.8 µM (inactive),18.9 µM (inactive),28.3 µM (inactive)
CCc1n[nH]c(=O)n1/N=C/c1ccccc1O,> 100 µM (inactive),> 100 µM (inactive),> 100 µM (inactive),> 100 µM (inactive),> 100 µM (inactive),> 100 µM (inactive),,> 100 µM (inactive),> 100 µM (inactive),> 100 µM (inactive),> 100 µM (inactive),> 100 µM (inactive),> 100 µM (inactive),> 100 µM (inactive),> 100 µM (inactive),,> 100 µM (inactive),> 100 µM (inactive),28 µM (inactive),
COC(=O)c1ccc(C(=O)OC)c2nc3cc(Cl)ccc3nc12,> 100 µM (inactive),> 100 µM (inactive),> 100 µM (inactive),> 100 µM (inactive),> 100 µM (inactive),,> 100 µM (inactive),> 100 µM (inactive),> 100 µM (inactive),,> 100 µM (inactive),> 100 µM (inactive),> 100 µM (inactive),> 100 µM (inactive),> 100 µM (inactive),,> 100 µM (inactive),> 100 µM (inactive),,> 100 µM (inactive)
[N-]=[N+]=NC12CC3C4CC5CC3C(C1)C(C5)C4C2,> 100 µM (inactive),> 100 µM (inactive),> 100 µM (inactive),> 100 µM (inactive),> 100 µM (inactive),,> 100 µM (inactive),> 100 µM (inactive),> 100 µM (inactive),,> 100 µM (inactive),> 100 µM (inactive),> 100 µM (inactive),> 100 µM (inactive),> 100 µM (inactive),,> 100 µM (inactive),> 100 µM (inactive),,> 100 µM (inactive)
CC1CC/C(=C\c2ccc(F)cc2)C2=C1C(c1ccc(F)cc1)n1c(s/c(=C/c3cccc(Br)c3)c1=O)=N2 (centres undefined),> 100 µM (inactive),> 100 µM (inactive),> 100 µM (inactive),> 100 µM (inactive),> 100 µM (inactive),> 100 µM (inactive),,,> 100 µM (inactive),> 100 µM (inactive),> 100 µM (inactive),> 100 µM (inactive),> 100 µM (inactive),> 100 µM (inactive),> 100 µM (inactive),,> 100 µM (inactive),,> 100 µM (inactive),
OCCN(CCO)c1ncnc2c1sc(=S)n2-c1ccccc1,> 100 µM (inactive),> 100 µM (inactive),> 100 µM (inactive),> 100 µM (inactive),> 100 µM (inactive),,> 100 µM (inactive),> 100 µM (inactive),> 100 µM (inactive),,> 100 µM (inactive),> 100 µM (inactive),> 100 µM (inactive),> 100 µM (inactive),> 100 µM (inactive),,> 100 µM (inactive),> 100 µM (inactive),,> 100 µM (inactive)
COc1cc(C2C(Cl)C(=O)N2c2c(C)n(C)n(-c3ccccc3)c2=O)ccc1O (centres undefined),20.1 µM (inactive),35 µM (inactive),23.7 µM (inactive),17.7 µM (inactive),15.7 µM (inactive),22.1 µM (inactive),22.3 µM (inactive),14.7 µM (inactive),19.4 µM (inactive),28.8 µM (inactive),18.1 µM (inactive),24.9 µM (inactive),,23.2 µM (inactive),29.6 µM (inactive),44.3 µM (inactive),22.7 µM (inactive),,,28.3 µM (inactive)
COc1cc(-c2c(C(C)=O)c(-c3ccccc3)n(C3OC(COC(C)=O)C(OC(C)=O)C(OC(C)=O)C3OC(C)=O)c(=S)c2C#N)ccc1O (centres undefined),55.3 µM (inactive),57.4 µM (inactive),> 100 µM (inactive),71.6 µM (inactive) and 89.5 µM (inactive),> 100 µM (inactive),,,72.8 µM (inactive),,46.8 µM (inactive) and 65.6 µM (inactive),,> 100 µM (inactive),> 100 µM (inactive),37.2 µM (inactive) and 72.4 µM (inactive),,,58.3 µM (inactive),,70.6 µM (inactive),
COC(=O)[C@@H]1C[C@H]2[C@H](c3ccccc3Br)[C@@H](OC(C)=O)[C@@H](OCc3ccccc3)ON2O1,> 100 µM (inactive),> 100 µM (inactive),> 100 µM (inactive),> 100 µM (inactive),> 100 µM (inactive),> 100 µM (inactive),,> 100 µM (inactive),> 100 µM (inactive),> 100 µM (inactive),,> 100 µM (inactive),> 100 µM (inactive),> 100 µM (inactive),> 100 µM (inactive),> 100 µM (inactive),49.4 µM (inactive),51.9 µM (inactive),,
N=C(NNS(=O)(=O)c1ccccc1)Oc1ccc(Br)cc1Br,> 100 µM (inactive),> 100 µM (inactive),> 100 µM (inactive),> 100 µM (inactive),> 100 µM (inactive),,73.5 µM (inactive),84.7 µM (inactive),> 100 µM (inactive),,57.8 µM (inactive),> 100 µM (inactive),> 100 µM (inactive),> 100 µM (inactive),> 100 µM (inactive),,71.4 µM (inactive),> 100 µM (inactive),,> 100 µM (inactive)
N#Cc1ccc(Nc2cnc3cc(N)ccc3n2)cc1,69 µM (inactive),98.2 µM (inactive),> 100 µM (inactive),> 100 µM (inactive),> 100 µM (inactive),,> 100 µM (inactive),> 100 µM (inactive),> 100 µM (inactive),,42.7 µM (inactive),> 100 µM (inactive),> 100 µM (inactive),> 100 µM (inactive),> 100 µM (inactive),,33 µM (inactive),> 100 µM (inactive),,> 100 µM (inactive)
CCN(CCCl)CCCCCNc1c2ccccc2nc2ccc(OC)cc12,0.47 µM (active),3.79 µM (inactive),2.14 µM (inactive),0.454 µM (active),2.15 µM (inactive),,0.321 µM (active),0.356 µM (active),0.533 µM (active),,0.115 µM (active),0.597 µM (active),2.72 µM (inactive),1.1 µM (active),1.47 µM (inactive),,0.0857 µM (active),1.04 µM (active),,2.04 µM (inactive)
Cc1ccc(S(=O)(=O)CC2(Br)CCc3ccccc3C2=O)cc1 (centres undefined),19.8 µM (inactive),43.1 µM (inactive),39.4 µM (inactive),41 µM (inactive),45.4 µM (inactive),28 µM (inactive),41.8 µM (inactive),33.6 µM (inactive),27.4 µM (inactive),42.4 µM (inactive),38.1 µM (inactive),16.6 µM (inactive),17.2 µM (inactive),17.6 µM (inactive),39.7 µM (inactive),,,,32.6 µM (inactive),33.5 µM (inactive)
COc1cc2c(cc1OC)C(Cc1ccc(Oc3cc(CC4c5cc(OC)c(OC)cc5CCN4C)ccc3O)cc1)N(C)CC2 (centres undefined),16.5 µM (inactive),88.5 µM (inactive),24.3 µM (inactive),21.9 µM (inactive),15.2 µM (inactive),,22.8 µM (inactive),51.2 µM (inactive),87.3 µM (inactive),,16.9 µM (inactive),14.2 µM (inactive),16.1 µM (inactive),15.7 µM (inactive),35.3 µM (inactive),,12.7 µM (inactive),14.3 µM (inactive),,19.5 µM (inactive)
